How the values were obtained:
[1] = test system: basophils, CD203c expression; details: cited from earlier work
[2] = test system: basophils, CD63 expression; details: cited from earlier work
[3] = test system: basophils (CD203c/IgE positive cells) in donor whole blood; experiment: Measurement of CD203c surface expression on donor basophils by flow cytometry; assay type: cell-based, human; details: positive controls, donor heparinized whole blood incubated 10 minutes at 37° C.; above buffer baseline; mean ±SEM, n=4
Experimental: Whole blood from seven normal individuals was screened and one donor was identified based on the marked upregulation of CD203c on basophils (CD203c/IgE positive cells) in response to fMLP and anti-FcεRIα antibody.
The test was carried out on heparinized blood within 3-4 hours after drawing the donor's blood. Two hundred μL aliquots of the donor's heparinized whole blood were incubated for 10 minutes at 37° C. with 40 μL of sera from CU patients, normal controls, or IgG depleted sera. For controls, 40 μL basophil stimulation buffer (20 mM HEPES, 125 mM NaCl, 5 mM KCl, 2.5 mM CaCl2, 1 mM MgCl2, 0.5 mM glucose, and 0.1% BSA, pH 7.4) was added to 200 μL of donor's blood and used as the negative control while 40 μL of […] f-Met-Leu-Phe (fMLP, Sigma, St. Louis, Mo.) and 40 μL of a 1:50 dilution of anti-FcεRIα receptor antibody (Upstate, Charlottesville, Va.) in Ca++ and Mg++ free phosphate buffered saline (PBS) were used as positive controls. […] The cells were then analyzed on a FACSCalibur flow cytometer (Becton Dickinson, San Jose, Calif.).
Basophils from whole blood were identified by the presence of CD203c on high expressing IgE positive cells (FIGS. 1A and 1B). The data are expressed as the mean fluorescence intensity or the percentage of CD203c expression. […] This was determined by defining an M1 region on the histogram analysis (FIG. 1C).

Molecule | induction of CD203c expression [1] | stimulation of CD63 expression [2] | mean percent basophil CD203c expression [3]
CCCCC[C@H](O)/C=C/[C@H]1C(=O)C[C@H](O)[C@@H]1C/C=C\CCCC(=O)O [PGD2] | strong inducer | does not stimulate | –
f-Met-Leu-Phe [fMLP] | – | – | 34.5%±14.6

Reference: patent US8609432B2, “Method and kit for detection of autoimmune chronic urticaria” (priority 2005, dated 2013)
